Tests used:
[1] = tested on: draining lymph node CD8+ T cells; assay: Mitochondria-related proteomics of draining lymph node CD8+ T cells of treated mice; assay type: in vivo
Experimental: T cells were prepared by two methods. For in vivo analysis, 13 days after tumor inoculation and 3 days after the start of therapy, draining lymph nodes from 5 mice were pooled, followed by isolation of CD8^+ T cells. From the isolated CD8^+ T cells, three samples each consisting of 1×10^6 cells were prepared and used for analysis. For in vitro experiments, 2×10^5 CD8^+ T cells stimulated with 0.2 μM spermidine for 1 hour were used. For mass spectrometry analysis, a Tandem Mass Tag (TMT) system or a Data Independent Acquisition (DIA) system was used. In the analysis of in vivo CD8^+ T cells (FIG. 3), those proteins which increased by 1.5-fold or more or decreased by 0.6-fold or less were extracted.

[2] = tested on: CD44 low CD8+ T cells; assay: Observation of mitochondria under electron microscope, CD44 low cells; assay type: cell-based, mice; details: SPD 0.2 μM, 1 hour
Experimental: (§1) FIG. 5 CD8^+ T cells were isolated from the spleen of mice without tumor inoculation, and further isolated into CD44^+ (CD44 high) and CD44^− (CD44 low) cell populations. a) CD44 low cells were simulated with CD3/CD28 antibody beads and SPD (0.2 μM). […] Protein expression levels after 1 hour and 2 hours were confirmed by western blotting with the respective indicated antibodies. As regards statistical analysis, t-test was used for comparison of two groups. * p<0.05, ** p<0.01, *** p<0.001, **** p<0.0001.
CD8^+ T cells (2×10^5) were stimulated with 0.2 μM spermidine for 1 hour. Then, cells were harvested, embedded in Ipgell (GenoStaff) and fixed with 4% paraformaldehyde and 2% glutaraldehyde. Images were taken with a transmission electron microscope (TEM). Mitochondrial size was determined with ImageJ software. As regards mitochondrial number, average numbers in single cell were determined with Prism software. Blind testing was used for observation and analysis of mitochondria.

[3] = tested on: AMPK and mTOR signaling; assay: Western blotting of AMPK and mTOR signaling, CD44 low cells; assay type: cell-based, mice; details: presence or absence of SPD 0.2 μM, 1 hour and 2 hours
Experimental: as §1
CD8^+ T cells were isolated using mouse CD8 Microbeads (Miltenyi Biotec or Mojo). After washing with PBS twice, 2×10^6 cells were solubilized in a lysis buffer containing 30 mM Tris-HCl (pH. 7.4), 150 mM NaCl, 10% glycerol, 0.1% SDS, 1% Triton-X-100, 0.05% Na-Doc, 5 mM EDTA (pH. 8.0), protease inhibitor mixture (Roche Molecular Biochemicals) and phosphatase inhibitors (Nacalai Tesque). After measurement of protein concentrations by DC protein assay (Bio-Rad), 4 μg of proteins was mounted on 4 to 20% gradient Mini-PROTEAN TGX Gels (Bio-Rad) and electroblotted onto nitrocellulose membranes, which were then incubated in a blocking buffer of TBS containing 1% BSA. Primary antibody incubations were carried out overnight at 4° C. in blocking buffer. After washing, secondary antibody incubations were carried out at room temperature for 40 min in blocking buffer. […]

[4] = tested on: CD8+ T cells; assay: Tumor-infiltrating CD8+ T cells in aged MC38 mice; assay type: in vivo; details: 56-week old mice; combination with SPD; 13 days after tumor inoculation
Experimental: (§2) FIG. 7 MC38 cells (5×10^5) were intradermally inoculated into 56-week old mice, which were treated along with the treatment schedule described in FIG. 1. PD-L1 antibody (2 mg/kg) and SPD (2 mg/kg) were used. a) Tumor growth curve and survival curve are shown. b) The frequency of CD8^+ T cells among lymphocytes infiltrating into tumor (in CD45^+ gate) and the absolute number of CD8^+ T cells per mg tumor 13 days after tumor inoculation are shown. c) CD8^+ T cells were isolated from spleen cells on the same schedule as b) and cultured for 20 hours under the stimulation with CD3/CD28. Cell proliferation was examined by means of ^3H uptake. d) CD8^+ T cells were isolated from draining lymph nodes on the same schedule as b) and glycolytic pathway-derived or mitochondrial metabolism-derived ATP production was calculated by Seahorse. e) Spare respiratory capacity (SRC) was also calculated in the experiment (d).
(§3) It is known from mouse model experiments that the effect of PD-1 inhibitory antibody therapy decreases in aged mice due to their decreased immunity. […] CD8^+ T cells were isolated from draining lymph nodes 13 days after tumor inoculation and glycolytic pathway-derived or mitochondrial metabolism-derived ATP production was calculated by Seahorse. Spare respiratory capacity (SRC) was also calculated. […]

[5] = tested on: CD8+ T cells; assay: Proliferation (3H uptake) of spleen CD8+ T cells of treated aged mice; assay type: in vivo; details: 56-week old mice; SPD combination group; 20 hours CD3/CD28, 3H uptake
Experimental: as §2, §3

NCCCCNCCCN [SPD, spermidine]
levels of electron transport chain related proteins (Cytochrome, NADH dehydrogenase, ATPase) ([1]; combined therapy compared to PD-1 inhibition alone): remarkably increased | number of mitochondria-related proteins whose level changed significantly ([1]; out of 203 proteins, combined therapy compared to PD-1 inhibition alone): 184 | pathway analysis: proteins associated with oxidative phosphorylation and metabolic pathways such as glycolysis ([1]; proteins increased under combined therapy): occupied top positions | mitochondrial size [2]: no change | structure of cristae [2]: denser structures of cristae | AMPK and mTOR signaling [3]: did not cause much difference | number of CD8+ T cells in lymphocytes infiltrating into tumor [4]: increase | proliferative activation of spleen CD8+ T cells [5]: enhanced

— patent publication US20220401385A1, “Combination Therapy Based on PD-1 Signaling Inhibitors” (Kyoto University, priority 2019, published 2022)
